According to ChEMBL document CHEMBL4308873, “Synthesis and biological evaluation of Ginsenoside Compound K analogues as a novel class of anti-asthmatic agents” (2019):

How the values were obtained:
Format in all cases: functional
Mus musculus [1] = assay: (§1) Anti-asthmatic activity in ovalbumin-induced asthmatic BALB/c mouse model assessed as 6.25 mg/ml methacholine-induced airway resistance at 20 mg/kg, po co-administered with ovalbumin from day 21 to 28 of experiment period measured post last dose by plethysmography (reference value: 2.44 +/- 0.87 cmH2O/ml)
Mus musculus [2] = assay: Anti-asthmatic activity in ovalbumin-induced asthmatic BALB/c mouse model assessed as IgE level in plasma at 20 mg/kg, po co-administered with ovalbumin from day 21 to 28 of experiment period by ELISA (reference value: 2544.05 +/- 229.07 ng/ml)
Mus musculus [3] = assay: as §1, with “100” for “6.25”, “84.5” for “2.44”, “2.41” for “0.87”
Mus musculus [4] = assay: as §1, with “50” for “6.25”, “64.33” for “2.44”, “3.41” for “0.87”
Mus musculus [5] = assay: as §1, with “25” for “6.25”, “14.03” for “2.44”, “1.15” for “0.87”
Mus musculus [6] = assay: as §1, with “12.5” for “6.25”, “6.03” for “2.44”, “1.02” for “0.87”
Mus musculus [7] = assay: as §1, with “0.6” for “20”
Mus musculus [8] = assay: as §1, with “100” for “6.25”, “0.6” for “20”, “84.5” for “2.44”, “2.41” for “0.87”
Mus musculus [9] = assay: as §1, with “12.5” for “6.25”, “0.6” for “20”, “6.03” for “2.44”, “1.02” for “0.87”
Mus musculus [10] = assay: as §1, with “50” for “6.25”, “0.6” for “20”, “64.33” for “2.44”, “3.41” for “0.87”
Mus musculus [11] = assay: as §1, with “25” for “6.25”, “0.6” for “20”, “14.03” for “2.44”, “1.15” for “0.87”
Mus musculus [12] = assay: Anti-asthmatic activity in ovalbumin-induced asthmatic BALB/c mouse model assessed as IgE level in plasma at 0.6 mg/kg, po co-administered with ovalbumin from day 21 to 28 of experiment period by ELISA (reference value: 2544.05 +/- 229.07 ng/ml)

| Structure (SMILES) | Activity (Mus musculus [1]) [cmH2O/ml] | Activity (Mus musculus [2]) [ng/mL] | Activity (Mus musculus [3]) [cmH2O/ml] | Activity (Mus musculus [4]) [cmH2O/ml] | Activity (Mus musculus [5]) [cmH2O/ml] | Activity (Mus musculus [6]) [cmH2O/ml] | further results |
| --- | --- | --- | --- | --- | --- | --- | --- |
| CC(C)=CCC[C@](C)(O[C@@H]1O[C@H](CO)[C@@H](O)[C@H](O)[C@H]1O)[C@H]1CC[C@]2(C)[C@@H]1[C@H](O)C[C@@H]1[C@@]3(C)CC[C@H](O)C(C)(C)[C@@H]3CC[C@]12C | 2.47 | 1501.85 | 6.21 | 5.04 | 4.79 | 4.14 |  |
| CC(C)=CCC[C@](C)(O[C@H]1O[C@@H](C)[C@H](O)[C@@H](O)[C@H]1O)[C@H]1CC[C@]2(C)[C@@H]1C(=O)C[C@@H]1[C@@]3(C)CC[C@H](O)C(C)(C)[C@@H]3CC[C@]12C |  | 2706.85 |  |  |  |  |  |
| CC(C)=CCC[C@](C)(O[C@@H]1O[C@H](CO)[C@H](O)[C@H](O)[C@H]1O)[C@H]1CC[C@]2(C)[C@@H]1C(=O)C[C@@H]1[C@@]3(C)CC[C@H](O)C(C)(C)[C@@H]3CC[C@]12C | 2.04 | 975.82 | 6.35 | 4.81 | 3.28 | 2.78 |  |
| CC(C)=CCC[C@](C)(O[C@@H]1O[C@H](CO)[C@@H](O)[C@H](O)[C@H]1O)[C@H]1CC[C@]2(C)[C@@H]1/C(=N/O)C[C@@H]1[C@@]3(C)CC/C(=N\O)C(C)(C)[C@@H]3CC[C@]12C | 3.4 | 1258.27 | 5.73 | 4.93 | 5.72 | 5.06 |  |
| CC(C)(O)CCC[C@](C)(O[C@@H]1O[C@H](CO)[C@@H](O)[C@H](O)[C@H]1O)[C@H]1CC[C@]2(C)[C@@H]1C(=O)C[C@@H]1[C@@]3(C)CC[C@H](O)C(C)(C)[C@@H]3CC[C@]12C |  | 2027.95 |  |  |  |  |  |
| CO[C@H]1CC[C@]2(C)[C@H]3CC(=O)[C@@H]4[C@@H]([C@](C)(CCC=C(C)C)O[C@@H]5O[C@H](CO)[C@@H](O)[C@H](O)[C@H]5O)CC[C@@]4(C)[C@]3(C)CC[C@H]2C1(C)C |  | 3593.38 |  |  |  |  |  |
| CC(C)=CCC[C@](C)(O[C@@H]1OC[C@@H](O)[C@H](O)[C@H]1O)[C@H]1CC[C@]2(C)[C@@H]1C(=O)C[C@@H]1[C@@]3(C)CC[C@H](O)C(C)(C)[C@@H]3CC[C@]12C |  | 2439.3 |  |  |  |  |  |
| CC(=O)O[C@H]1CC[C@]2(C)[C@H]3CC(=O)[C@@H]4[C@@H]([C@](C)(CCC=C(C)C)O[C@@H]5O[C@H](CO)[C@@H](O)[C@H](O)[C@H]5O)CC[C@@]4(C)[C@]3(C)CC[C@H]2C1(C)C |  | 3224.5 |  |  |  |  |  |
| CO/N=C1\CC[C@]2(C)[C@H]3CC(=O)[C@@H]4[C@@H]([C@](C)(CCC=C(C)C)O[C@@H]5O[C@H](CO)[C@@H](O)[C@H](O)[C@H]5O)CC[C@@]4(C)[C@]3(C)CC[C@H]2C1(C)C |  | 2023.54 |  |  |  |  |  |
| CC(C)CCC[C@](C)(O[C@@H]1O[C@H](CO)[C@@H](O)[C@H](O)[C@H]1O)[C@H]1CC[C@]2(C)[C@@H]1C(=O)C[C@@H]1[C@@]3(C)CC[C@H](O)C(C)(C)[C@@H]3CC[C@]12C |  | 1976.31 |  |  |  |  |  |
| CC(C)=CCC[C@](C)(O[C@@H]1O[C@H](CO)[C@@H](O)[C@H](O)[C@H]1O)[C@H]1CC[C@]2(C)[C@@H]1C(=O)C[C@@H]1[C@@]3(C)CCC(=O)C(C)(C)[C@@H]3CC[C@]12C |  | 2439.3 |  |  |  |  |  |
| CC(C)=CCC[C@](C)(O[C@@H]1O[C@H](CO)[C@@H](O)[C@H](O)[C@H]1O)[C@H]1CC[C@]2(C)[C@@H]1C(=O)C[C@@H]1[C@@]3(C)CC/C(=N\O)C(C)(C)[C@@H]3CC[C@]12C |  | 1968.31 |  |  |  |  |  |
| CC(C)=CCC[C@](C)(O[C@@H]1O[C@H](CO)[C@@H](O)[C@H](O)[C@@H]1O)[C@H]1CC[C@]2(C)[C@@H]1C(=O)C[C@@H]1[C@@]3(C)CC[C@H](O)C(C)(C)[C@@H]3CC[C@]12C | 2.83 | 1136.96 | 5.97 | 4.94 | 3.58 | 3.54 |  |
| CC(C)=CCC[C@](C)(O[C@@H]1O[C@H](CO)[C@@H](O)[C@H](O)[C@H]1O)[C@H]1CC[C@]2(C)[C@@H]1C(=O)C[C@@H]1[C@@]3(C)CC=CC(C)(C)[C@@H]3CC[C@]12C | 2.86 | 1191.08 | 5.76 | 5.61 | 4.89 | 3.24 |  |
| CC(C)=CCC[C@](C)(O[C@@H]1O[C@H](CO)[C@@H](O)[C@H](O)[C@H]1O)[C@H]1CC[C@]2(C)[C@@H]1C(=O)C[C@@H]1[C@@]3(C)CC[C@H](O)C(C)(C)[C@@H]3CC[C@]12C | 2.18 | 1237.11 | 6.79 | 5.9 | 4.65 | 3.13 |  |
| CC(=O)OCC(=O)[C@@]1(O)[C@H](C)C[C@H]2[C@@H]3CCC4=CC(=O)C=C[C@]4(C)[C@@]3(F)[C@@H](O)C[C@@]21C [DEXAMETHASONE ACETATE] |  |  |  |  |  |  | Activity (Mus musculus [7]): 2.89 cmH2O/ml; Activity (Mus musculus [8]): 3.06 cmH2O/ml; Activity (Mus musculus [9]): 3.09 cmH2O/ml; Activity (Mus musculus [10]): 3.04 cmH2O/ml; Activity (Mus musculus [11]): 3.36 cmH2O/ml; Activity (Mus musculus [12]): 1131.05 ng/mL |
